Experimental data from US12077503B2, “Substituted cyclic amides and their use as herbicides” (FMC CORPORATION, priority 2015, dated 2024).

What was measured:
Format in all cases: in vivo
[1] = tested on: Kochia (Kochia scoparia); test: Test A preemergence
Summary of the method: (§1)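 Seeds sprayed preemergence with a directed soil spray, or plants at 2 to 10 cm height and one- to two-leaf stage sprayed postemergence, with test chemicals in a non-phytotoxic solvent mixture containing surfactant, in loam soil–sand blend. Injury rated visually against untreated controls after about 10 d in greenhouse, 0 (no effect) to 100 (complete control).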

[2] = tested on: barnyardgrass (Echinochloa crus-galli); test: Test A preemergence
Summary of the method: as §1

[3] = tested on: giant foxtail (Setaria faberii); test: Test A preemergence
Summary of the method: as §1

[4] = tested on: pigweed (Amaranthus retroflexus); test: Test A preemergence
[5] = tested on: ragweed (common ragweed, Ambrosia elatior); test: Test A preemergence
Summary of the method: as §1

[6] = tested on: ryegrass, Italian (Italian ryegrass, Lolium multiflorum); test: Test A preemergence
Summary of the method: as §1

[7] = tested on: Galium (catchweed bedstraw, Galium aparine); test: Test A postemergence; conditions: postemergence, 0 to 100 scale (0 no effect, 100 complete control)
Summary of the method: as §1

[8] = tested on: Kochia (Kochia scoparia); test: Test A postemergence; conditions: postemergence, 0 to 100 scale (0 no effect, 100 complete control)
Summary of the method: as §1

[9] = tested on: barnyardgrass (Echinochloa crus-galli); test: Test A postemergence; conditions: postemergence, 0 to 100 scale (0 no effect, 100 complete control)
Summary of the method: as §1

[10] = tested on: blackgrass (Alopecurus myosuroides); test: Test A postemergence; conditions: postemergence, 0 to 100 scale (0 no effect, 100 complete control)
Summary of the method: as §1

[11] = tested on: corn (Zea mays); test: Test A postemergence; conditions: postemergence, 0 to 100 scale (0 no effect, 100 complete control)
Summary of the method: as §1

[12] = tested on: giant foxtail (Setaria faberii); test: Test A postemergence; conditions: postemergence, 0 to 100 scale (0 no effect, 100 complete control)
Summary of the method: as §1

[13] = tested on: pigweed (Amaranthus retroflexus); test: Test A postemergence; conditions: postemergence, 0 to 100 scale (0 no effect, 100 complete control)
Summary of the method: as §1

[14] = tested on: ragweed (common ragweed, Ambrosia elatior); test: Test A postemergence; conditions: postemergence, 0 to 100 scale (0 no effect, 100 complete control)
Summary of the method: as §1

[15] = tested on: ryegrass, Italian (Italian ryegrass, Lolium multiflorum); test: Test A postemergence; conditions: postemergence, 0 to 100 scale (0 no effect, 100 complete control)
Summary of the method: as §1

[16] = tested on: wheat (Triticum aestivum); test: Test A postemergence; conditions: postemergence, 0 to 100 scale (0 no effect, 100 complete control)
Summary of the method: as §1

[17] = tested on: barnyardgrass (Echinochloa crus-galli); test: Test B flooded paddy test; conditions: Flood, 0 to 100 scale where 0 is no effect and 100 is complete control, 13 to 15 d
Summary of the method: (§2)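 2-leaf plants; pots flooded 3 cm over soil; cpd added to paddy water; depth held; greenhouse 13–15 d; visual rating vs controls, 0 = no effect, 100 = complete control.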

[18] = tested on: ducksalad (Heteranthera limosa); test: Test B flooded paddy test; conditions: Flood, 0 to 100 scale where 0 is no effect and 100 is complete control, 13 to 15 d
Summary of the method: as §2

[19] = tested on: rice (Oryra sativa); test: Test B flooded paddy test; conditions: Flood, 0 to 100 scale where 0 is no effect and 100 is complete control, 13 to 15 d
Summary of the method: as §2

[20] = tested on: sedge, umbrella (small-flower umbrella sedge, Cyperus difformis); test: Test B flooded paddy test; conditions: Flood, 0 to 100 scale where 0 is no effect and 100 is complete control, 13 to 15 d
Summary of the method: as §2

[21] = 125 g ai/ha, Preemergence, visual injury after approximately 10 d, 0 to 100 scale where 0 is no effect and 100 is complete control
[22] = 500 g ai/ha, preemergence, 0 to 100 scale, 0 = no effect, 100 = complete control
[23] = 125 g ai/ha, visual rating after approx. 10 d
[24] = 500 g ai/ha, visual injury, approx. 10 d

SMILES	Plant response rating, Kochia [1, 21]	Plant response rating, Kochia [1, 22]	Plant response rating, Barnyardgrass [2, 21]	Plant response rating, Barnyardgrass [2, 22]	Plant response rating, Foxtail, Giant [3, 21]	Plant response rating, Foxtail, Giant [3, 22]	Plant response rating, Pigweed [4, 21]	Plant response rating, Pigweed [4, 22]	Plant response rating, Ragweed [5, 21]	Plant response rating, Ragweed [5, 22]	Plant response rating, Ryegrass, Italian [6, 21]	Plant response rating, Ryegrass, Italian [6, 22]	Plant response rating, Galium [7, 23]	Plant response rating, Galium [7, 24]	Plant response rating, Kochia [8, 23]	Plant response rating, Kochia [8, 24]	Plant response rating, Barnyardgrass [9, 23]	Plant response rating, Barnyardgrass [9, 24]	Plant response rating, Blackgrass [10, 23]	Plant response rating, Blackgrass [10, 24]	also measured
O=C1NCC(c2csc(Br)c2)C1C(=O)Nc1cccc(F)c1F (racemic) [Compound 649]	60	70	80	90	50	70	50	60	20	70	30	70	50	70	30	60	60	70	20	60	Plant response rating, Corn [11, 23]: 0; Plant response rating, Corn [11, 24]: 0; Plant response rating, Foxtail, Giant [12, 23]: 30; Plant response rating, Foxtail, Giant [12, 24]: 60; Plant response rating, Pigweed [13, 23]: 0; Plant response rating, Pigweed [13, 24]: 30; Plant response rating, Ragweed [14, 23]: 20; Plant response rating, Ragweed [14, 24]: 60; Plant response rating, Ryegrass, Italian [15, 23]: 30; Plant response rating, Ryegrass, Italian [15, 24]: 40; Plant response rating, Wheat [16, 23]: 0; Plant response rating, Wheat [16, 24]: 0; Plant response rating, Barnyardgrass ([17]; 250 g ai/ha): 60; Plant response rating, Ducksalad ([18]; 250 g ai/ha): 100; Plant response rating, Rice ([19]; 250 g ai/ha): 0; Plant response rating, Sedge, Umbrella ([20]; 250 g ai/ha): 0
Cc1ccc(C2CNC(=O)C2C(=O)Nc2ccccc2F)cc1C(F)(F)F (racemic) [Compound 654]	0	40	90	90	90	90	40	70	0	30	40	80	40	60	20	50	90	90	30	50	Plant response rating, Corn [11, 23]: 20; Plant response rating, Corn [11, 24]: 70; Plant response rating, Foxtail, Giant [12, 23]: 70; Plant response rating, Foxtail, Giant [12, 24]: 90; Plant response rating, Pigweed [13, 23]: 0; Plant response rating, Pigweed [13, 24]: 20; Plant response rating, Ragweed [14, 23]: 0; Plant response rating, Ragweed [14, 24]: 20; Plant response rating, Ryegrass, Italian [15, 23]: 30; Plant response rating, Ryegrass, Italian [15, 24]: 60; Plant response rating, Wheat [16, 23]: 0; Plant response rating, Wheat [16, 24]: 40; Plant response rating, Barnyardgrass ([17]; 250 g ai/ha): 35; Plant response rating, Ducksalad ([18]; 250 g ai/ha): 90; Plant response rating, Rice ([19]; 250 g ai/ha): 0; Plant response rating, Sedge, Umbrella ([20]; 250 g ai/ha): 0
Cc1ccc(C2CNC(=O)C2C(=O)Nc2ccc(F)cc2F)cc1C(F)(F)F (racemic) [Compound 655]	30	40	90	90	90	90	50	60	0	30	40	60	30	50	30	40	70	90	20	30	Plant response rating, Corn [11, 23]: 0; Plant response rating, Corn [11, 24]: 30; Plant response rating, Foxtail, Giant [12, 23]: 40; Plant response rating, Foxtail, Giant [12, 24]: 60; Plant response rating, Pigweed [13, 23]: 0; Plant response rating, Pigweed [13, 24]: 0; Plant response rating, Ragweed [14, 23]: 0; Plant response rating, Ragweed [14, 24]: 0; Plant response rating, Ryegrass, Italian [15, 23]: 0; Plant response rating, Ryegrass, Italian [15, 24]: 30; Plant response rating, Wheat [16, 23]: 0; Plant response rating, Wheat [16, 24]: 10; Plant response rating, Barnyardgrass ([17]; 250 g ai/ha): 20; Plant response rating, Ducksalad ([18]; 250 g ai/ha): 100; Plant response rating, Rice ([19]; 250 g ai/ha): 30; Plant response rating, Sedge, Umbrella ([20]; 250 g ai/ha): 0
O=C1NCC(c2cccc(C(F)(F)F)c2)C1C(=O)Nc1ccc(Cl)cc1F (racemic) [Compound 675]	0	0	70	80	70	90	0	0	0	0	0	20	0	0	0	0	40	70	0	20	Plant response rating, Corn [11, 23]: 0; Plant response rating, Corn [11, 24]: 0; Plant response rating, Foxtail, Giant [12, 23]: 50; Plant response rating, Foxtail, Giant [12, 24]: 80; Plant response rating, Pigweed [13, 23]: 0; Plant response rating, Pigweed [13, 24]: 0; Plant response rating, Ragweed [14, 23]: 0; Plant response rating, Ragweed [14, 24]: 0; Plant response rating, Ryegrass, Italian [15, 23]: 0; Plant response rating, Ryegrass, Italian [15, 24]: 0; Plant response rating, Wheat [16, 23]: 0; Plant response rating, Wheat [16, 24]: 0; Plant response rating, Barnyardgrass ([17]; 500 g ai/ha): 60; Plant response rating, Ducksalad ([18]; 500 g ai/ha): 75; Plant response rating, Rice ([19]; 500 g ai/ha): 15; Plant response rating, Sedge, Umbrella ([20]; 500 g ai/ha): 0
